Reference: ChEMBL document CHEMBL1148602, “Synthesis and biological evaluation of new pentaphyrin macrocycles for photodynamic therapy” (J Med Chem, 2006)
Values after ≈ are worked out from the molar mass of the structure shown. Active and inactive are the calls of the source. The rule behind the calls is not given here.

How the values were obtained:
Type in all cases: functional, cell-based
IMR-90 [1] = experiment: Cytotoxicity against human transformed fibroblast IMR90 E1A cell line irradiated with white light at the fluence of 15 J/cm2; details: IMR-90, light or radiation study
PANC-1 [2] = experiment: Cytotoxicity against human pancreatic adenocarcinomas Panc1 cell line irradiated with white light at the fluence of 30 J/cm2; details: PANC-1, light or radiation study
IMR90 EIA = experiment: Activation of Caspase 3 and 7 in IMR90 EIA cells at 3 ug/ml and irradiation of 15 J/cm2 for 8 hrs; details: Homo sapiens
IMR-90 [3] = experiment: Cytotoxicity against human transformed fibroblast IMR90 E1A cell line without light irradiation by MTT assay at 3-12 ug/ml
K562 [4] = experiment: Effect on apoptotic fragmentation in K562 cells at 3 ug/ml and irradiation at 8 mW/cm2 for 60 min; details: Homo sapiens
K562 [5] = experiment: Cytotoxicity against human chronic myelogenous leukemia K562 cell line irradiated with white light at the fluence of 30 J/cm2; details: K562, light or radiation study
IMR-90 [6] = experiment: Effect on apoptotic fragmentation in IMR90 E1A cells at 3 ug/ml and irradiation at 8 mW/cm2 for 60 min; details: Homo sapiens
HeLa [7] = experiment: Cytotoxicity against human cervix adenocarcinomas HeLa cell line irradiated with white light at the fluence of 15 J/cm2; details: light or radiation study
HeLa [8] = experiment: Cytotoxicity against human cervix adenocarcinomas HeLa cell line irradiated with white light at the fluence of 30 J/cm2; details: light or radiation study
PANC-1 [9] = experiment: Cytotoxicity against human pancreatic adenocarcinomas Panc1 cell line irradiated with white light at the fluence of 15 J/cm2; details: PANC-1, light or radiation study
HeLa [10] = experiment: Internalization in cytoplasm in HeLa cells at 3 ug/ml for 24 hr by confocal microscopy after propidium iodide staining; details: Homo sapiens
K562 [11] = experiment: Activation of Caspase 3 and 7 in K562 cells at 3 ug/ml and irradiation of 15 J/cm2 for 8 hrs; details: Homo sapiens
IMR-90 [12] = experiment: Cytotoxicity against human transformed fibroblast IMR90 E1A cell line irradiated with white light at the fluence of 30 J/cm2; details: IMR-90, light or radiation study
K562 [13] = experiment: Cytotoxicity against human chronic myelogenous leukemia K562 cell line without light irradiation by MTT assay at 3-12 ug/ml
K562 [14] = experiment: Cytotoxicity against human chronic myelogenous leukemia K562 cell line irradiated with white light at the fluence of 15 J/cm2; details: K562, light or radiation study

For `CCC1=C(C)C2=NC/1=C\c1[nH]c(c(CC)c1CC)/C=c1\[nH]/c(c(C)c1CC)=C\C1=NC(C=C1)/C(c1ccccc1)=c1/cc/c([nH]1)=C/2` (stereo not given), the IC50 (IMR-90 [1]) was 4 µg/mL (≈ 6.6 µM), the IC50 (PANC-1 [2]) was 3.9 µg/mL (≈ 6.44 µM) and the Activity (IMR90 EIA) was “Active”. The Activity (IMR-90 [3]) was “Toxic”, the Activity (K562 [4]) was “Active” and the IC50 (K562 [5]) was 1.5 µg/mL (≈ 2.48 µM). For the same molecule, the Activity (IMR-90 [6]) was “Active”, the IC50 (HeLa [7]) was 4.8 µg/mL (≈ 7.92 µM) and the IC50 (HeLa [8]) was 2.6 µg/mL (≈ 4.29 µM). For the same molecule, the IC50 (PANC-1 [9]) was 9.7 µg/mL (≈ 16 µM), the Activity (HeLa [10]) was “Active” and the Activity (K562 [11]) was “Active”. The IC50 (IMR-90 [12]) was 2.3 µg/mL (≈ 3.8 µM), the Activity (K562 [13]) was “Toxic” and the IC50 (K562 [14]) was 2 µg/mL (≈ 3.3 µM).
`CCC1=C(C)C2=NC/1=C\c1[nH]c(c(CC)c1CC)/C=c1\[nH]/c(c(C)c1CC)=C\c1ccc([nH]1)/C(c1ccccc1)=c1/cc/c([nH]1)=C/2` was tested, and the IC50 (IMR-90 [1]) was 4.2 µg/mL (≈ 6.93 µM), the IC50 (PANC-1 [2]) was 4.6 µg/mL (≈ 7.59 µM) and the Activity (IMR90 EIA) was “Active”. The Activity (IMR-90 [3]) was “Toxic”, the Activity (K562 [4]) was “Active” and the IC50 (K562 [5]) was 2.9 µg/mL (≈ 4.79 µM). The Activity (IMR-90 [6]) was “Active”, the IC50 (HeLa [7]) was 5.8 µg/mL (≈ 9.57 µM) and the IC50 (HeLa [8]) was 3.8 µg/mL (≈ 6.27 µM). The IC50 (PANC-1 [9]) was 9.8 µg/mL (≈ 16.2 µM), the Activity (HeLa [10]) was “Active” and the Activity (K562 [11]) was “Active”. For the same molecule, the IC50 (IMR-90 [12]) was 3.2 µg/mL (≈ 5.28 µM), the Activity (K562 [13]) was “Toxic” and the IC50 (K562 [14]) was 3.6 µg/mL (≈ 5.94 µM).
